In article PMC12770603 (Scientific Reports, 2025):

Test system: EstN3
Assay: p-nitrophenol release at […] nm, Michaelis-Menten non-linear fit
Format: biochemical, uncultured bacterium
Conditions: pH 7.0, 37 °C, 15 min

Km: 1520 µM
Compound: CCCCC(=O)Oc1ccc([N+](=O)[O-])cc1 [pNP-valerate]
